This assay has as its system 186277-243-T-J2-PDC complex spheroid viability. In words: Anticancer human tumor 186277-243-T-J2-PDC patient-derived colon adenocarcinoma cell line growth inhibition. The settings on record: for viability, T/C: stronger effect = lower value. Summed up: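 Multicellular complex spheroids of tumor cells with human endothelial cells (HUVEC) and mesenchymal stem cells; the LSD1 inhibitor iadademstat was combined with standard-of-care or investigational agents. Top concentration at or near clinical Cmax, half-log dilutions; final DMSO ≤0.25%.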

[1] abbreviates: curve of first compound, second compound 0.1 µM.
[2] abbreviates: curve of first compound, second compound 0.316 µM.
The mark [3] stands for this setting: curve of first compound, second compound 1 µM.
Where [4] appears, read: curve of first compound, second compound 3.16 µM.
The mark [5] stands for this setting: curve of first compound, second compound 10 µM.
Where [6] appears, read: second compound 0.1 µM, first compound 0.0316 µM.
Setting [7] is: second compound 0.1 µM, first compound 0.1 µM.
The mark [8] stands for this setting: second compound 0.1 µM, first compound 0.316 µM.
Where [9] appears, read: second compound 0.1 µM, first compound 1 µM.
Setting [10] is: second compound 0.316 µM, first compound 0.0316 µM.
Where [11] appears, read: second compound 0.316 µM, first compound 0.1 µM.
The mark [12] stands for this setting: second compound 0.316 µM, first compound 0.316 µM.
The mark [13] stands for this setting: second compound 0.316 µM, first compound 1 µM.
[14] abbreviates: second compound 1 µM, first compound 0.0316 µM.
Where [15] appears, read: second compound 1 µM, first compound 0.1 µM.
[16] abbreviates: second compound 1 µM, first compound 0.316 µM.
[17] abbreviates: second compound 1 µM, first compound 1 µM.
Where [18] appears, read: second compound 3.16 µM, first compound 0.0316 µM.
The mark [19] stands for this setting: second compound 3.16 µM, first compound 0.1 µM.
[20] abbreviates: second compound 3.16 µM, first compound 0.316 µM.
The mark [21] stands for this setting: second compound 3.16 µM, first compound 1 µM.
[22] abbreviates: second compound 10 µM, first compound 0.0316 µM.
The mark [23] stands for this setting: second compound 10 µM, first compound 0.1 µM.
Setting [24] is: second compound 10 µM, first compound 0.316 µM.
Setting [25] is: second compound 10 µM, first compound 1 µM.
Where [26] appears, read: second compound 0.1 µM, first compound 0.00316 µM.
Setting [27] is: second compound 0.1 µM, first compound 0.01 µM.
Setting [28] is: second compound 0.316 µM, first compound 0.00316 µM.
Where [29] appears, read: second compound 0.316 µM, first compound 0.01 µM.
The mark [30] stands for this setting: second compound 1 µM, first compound 0.00316 µM.
[31] abbreviates: second compound 1 µM, first compound 0.01 µM.
The mark [32] stands for this setting: second compound 3.16 µM, first compound 0.00316 µM.
Setting [33] is: second compound 3.16 µM, first compound 0.01 µM.
Setting [34] is: second compound 10 µM, first compound 0.00316 µM.
Where [35] appears, read: second compound 10 µM, first compound 0.01 µM.

The pIC50 is the negative decadic logarithm of the IC50, by convention in mol/L. In general, viability, T/C refers to the ratio of treated to control.

pIC50: −log10 of the molar value. Values joined by “and” are separate entries in the source; they are usually repeats but may differ in a detail not shown here. Identical values can stand only once.
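Also: 7 day exposure to compounds.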
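For viability, T/C in this document: 100% = DMSO vehicle control viability.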

Regarding `CC(C)c1c(-c2ccccc2)nc2c(C#N)c[nH]n2c1=O` + NC1CC1c1ccc(-c2cccc(O)c2)cc1, the negative logarithm of the IC50 (pIC50) was under 5.00 under setting [1]; under 5.00 under setting [2]; under 5.00 under setting [3]; under 5.00 under setting [4]; under 5.00 under setting [5]. The viability, T/C under setting [6] was 114%; the viability, T/C under setting [7] was 101%; the viability, T/C under setting [8] was 106%; the viability, T/C under setting [9] was 85.4%; the viability, T/C (second compound 0.1 µM, first compound 3.16 µM) is 88.1%; the viability, T/C (second compound 0.1 µM, first compound 10 µM) was 72.5%. The viability, T/C by setting is: under setting [10], 95.9%; under setting [11], 107%; under setting [12], 104%; under setting [13], 100%; (second compound 0.316 µM, first compound 3.16 µM) 85.9%; (second compound 0.316 µM, first compound 10 µM) 78.5%. The viability, T/C is, setting by setting: under setting [14], 106%; under setting [15], 99.8%; under setting [16], 93%; under setting [17], 96.2%; (second compound 1 µM, first compound 3.16 µM) 95.4%; (second compound 1 µM, first compound 10 µM) 73.7%. Besides, the viability, T/C runs as follows: under setting [18], 101%; under setting [19], 106%; under setting [20], 111%; under setting [21], 108%; (second compound 3.16 µM, first compound 3.16 µM) 96.9%; (second compound 3.16 µM, first compound 10 µM) 80.9%. Also, the viability, T/C under setting [22] is 88.9%; the viability, T/C under setting [23] is 86%; the viability, T/C under setting [24] was 102%; the viability, T/C under setting [25] was 97.6%; the viability, T/C (second compound 10 µM, first compound 3.16 µM) was 85%; the viability, T/C (second compound 10 µM, first compound 10 µM) is 74.6%.

Take `CC1COCCN1c1cc(-c2ccnn2C)c2ccnc(-c3ccn[nH]3)c2n1` (stereo unspecified) + NC1CC1c1ccc(-c2cccc(O)c2)cc1: the pIC50 under setting [1] is over 8.50; the negative-log IC50 (pIC50) under setting [2] was over 8.50; the pIC50 under setting [3] was over 8.50; the pIC50 under setting [4] was over 8.50; the pIC50 under setting [5] is over 8.50. For the same compound, the viability, T/C under setting [26] is 20.3%; the viability, T/C under setting [27] was 15.9%; the viability, T/C under setting [6] is 9.71%; the viability, T/C under setting [7] is 8.39%; the viability, T/C under setting [8] was 9.56%; the viability, T/C under setting [9] was 6.55%. In addition, the viability, T/C is 19.9% under setting [28]; 16.7% under setting [29]; 10.2% under setting [10]; 8.74% under setting [11]; 8.51% under setting [12]; 6.53% under setting [13]. Further, the viability, T/C is, setting by setting: under setting [30], 20.7%; under setting [31], 15.4%; under setting [14], 10.2%; under setting [15], 7.9%; under setting [16], 8.7%; under setting [17], 5.94%. Further, the viability, T/C under setting [32] was 22.6%; the viability, T/C under setting [33] is 17.3%; the viability, T/C under setting [18] was 10.9%; the viability, T/C under setting [19] was 8.9%; the viability, T/C under setting [20] is 9.05%; the viability, T/C under setting [21] is 6.86%. Also, the viability, T/C is 18% under setting [34]; 15.5% under setting [35]; 10.1% under setting [22]; 8.33% under setting [23]; 8.45% under setting [24]; 7.35% under setting [25].

For `Nc1ncn(C2CC(O)C(CO)S2)c(=O)n1` (stereo unspecified), the viability, T/C (compound 0.000949 µM) was 109% and 96.1%; the viability, T/C (compound 0.003 µM) was 118% and 104%; the viability, T/C (compound 0.00949 µM) is 99.9% and 109%; the viability, T/C (compound 0.03 µM) was 83.4% and 99.1%; the viability, T/C (compound 0.0949 µM) is 37.5% and 53.4%; the viability, T/C (compound 0.3 µM) was 11.7% and 12%. Moreover, the pIC50 (curve of compound) was 7.16 and 6.98.

In the case of `CC(C)CC(NC(=O)C(Cc1ccccc1)NC(=O)c1cnccn1)B(O)O` (stereo unspecified) + NC1CCC(NC2CC2c2ccccc2)CC1, the pIC50 is, setting by setting: under setting [1], 8.43; under setting [2], 8.40; under setting [3], 8.44; under setting [4], 8.34; under setting [5], 8.40. The viability, T/C reads like this: (second compound 0.1 µM, first compound 0.000316 µM) 103%; (second compound 0.1 µM, first compound 0.001 µM) 107%; under setting [26], 58.1%; under setting [27], 0.46%; under setting [6], 0.13%; under setting [7], 0.28%. The viability, T/C (second compound 0.316 µM, first compound 0.000316 µM) was 113%; the viability, T/C (second compound 0.316 µM, first compound 0.001 µM) is 107%; the viability, T/C under setting [28] was 61.5%; the viability, T/C under setting [29] is 0.8%; the viability, T/C under setting [10] is 0.31%; the viability, T/C under setting [11] was 0.65%. Further, the viability, T/C by setting is: (second compound 1 µM, first compound 0.000316 µM) 111%; (second compound 1 µM, first compound 0.001 µM) 107%; under setting [30], 57.4%; under setting [31], 0.43%; under setting [14], 0.44%; under setting [15], 0.16%. The viability, T/C (second compound 3.16 µM, first compound 0.000316 µM) is 107%; the viability, T/C (second compound 3.16 µM, first compound 0.001 µM) is 124%; the viability, T/C under setting [32] is 72.7%; the viability, T/C under setting [33] was 0.98%; the viability, T/C under setting [18] was 0.25%; the viability, T/C under setting [19] was 0.11%. Further, the viability, T/C was 111% (second compound 10 µM, first compound 0.000316 µM); 98.5% (second compound 10 µM, first compound 0.001 µM); 62% under setting [34]; 0.43% under setting [35]; 0.16% under setting [22]; 0.43% under setting [23].

As to `COc1cc(C2c3cc4c(cc3C(OC3OC5COC(C)OC5C(O)C3O)C3COC(=O)C23)OCO4)cc(OC)c1O` (stereo unspecified), the viability, T/C is, setting by setting: (compound 0.00949 µM) 101% and 112%; (compound 0.03 µM) 100% and 124%; (compound 0.0949 µM) 92.8% and 98.9%; (compound 0.3 µM) 75.2% and 70.9%; (compound 0.949 µM) 61.2% and 39%; (compound 3 µM) 40.3% and 17.3%. For the same compound, the pIC50 (curve of compound) is 5.77 and 6.21.

Regarding `CC(C)CC(NC(=O)CNC(=O)c1cc(Cl)ccc1Cl)B1OC(=O)CC(CC(=O)O)(C(=O)O)O1` (stereo unspecified), the viability, T/C (compound 0.000316 µM) is 99.8% and 95.4%; the viability, T/C (compound 0.001 µM) is 99.4% and 103%; the viability, T/C (compound 0.00316 µM) was 101% and 94.2%; the viability, T/C (compound 0.01 µM) was 70.7% and 51.2%; the viability, T/C (compound 0.0316 µM) is 14.8% and 2.68%; the viability, T/C (compound 0.1 µM) is 6.24% and 0.35%. The pIC50 (curve of compound) is 7.82 and 7.99.

Values taken from PubChem BioAssay AID1918933 (Molecular Pharmacology Branch, DTP, NCI, 2023).
